Data as given in the supplement of paper PMC10307832.

Experiments:
Experiment in all cases: relative viability (nuclei count vs DMSO), 5 days (fraction); higher = more cells survive
RAF265 + Pictilisib = compound: Cn1c(Nc2ccc(C(F)(F)F)cc2)nc2cc(Oc3ccnc(-c4ncc(C(F)(F)F)[nH]4)c3)ccc21 [RAF265] + CS(=O)(=O)N1CCN(Cc2cc3nc(-c4cccc5[nH]ncc45)nc(N4CCOCC4)c3s2)CC1 [Pictilisib] (partner 1 µM)
Outline: (§1)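 Relative viability is defined as nuclei in treated wells over nuclei in vehicle wells. Duplicate plates were run and medians reported. Lung cancer cell lines in 1536-well plates were dosed by pin tool one day after seeding, with one drug or with a fixed anchor-drug dose plus five library-drug doses (not always all listed) in √10 steps, and nuclei were counted after 5 days.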

IPA-3 + Lapatinib = compound: C1=CC=C2C(=C1)C=CC(=C2SSC3=C(C=CC4=CC=CC=C43)O)O [IPA-3] + CS(=O)(=O)CCNCc1ccc(-c2ccc3ncnc(Nc4ccc(OCc5cccc(F)c5)c(Cl)c4)c3c2)o1 [Lapatinib] (partner 2 µM)
Outline: as §1

IPA-3 + Luminespib = compound: C1=CC=C2C(=C1)C=CC(=C2SSC3=C(C=CC4=CC=CC=C43)O)O [IPA-3] + CCNC(=O)c1noc(-c2cc(C(C)C)c(O)cc2O)c1-c1ccc(CN2CCOCC2)cc1 [Luminespib] (partner 0.01 µM)
Outline: as §1

IPA-3 + AZD7762 = compound: C1=CC=C2C(=C1)C=CC(=C2SSC3=C(C=CC4=CC=CC=C43)O)O [IPA-3] + NC(=O)Nc1cc(-c2cccc(F)c2)sc1C(=O)N[C@H]1CCCNC1 [AZD7762] (partner 0.2 µM)
Outline: as §1

Row | Cell Line | relative viability (RAF265 + Pictilisib; first compound 0.01 µM) | relative viability (RAF265 + Pictilisib; first compound 0.03162 µM) | relative viability (RAF265 + Pictilisib; first compound 0.1 µM) | relative viability (RAF265 + Pictilisib; first compound 0.3162 µM) | relative viability (RAF265 + Pictilisib; first compound 1 µM) | relative viability (IPA-3 + Lapatinib; first compound 0.2 µM) | relative viability (IPA-3 + Lapatinib; first compound 0.6325 µM) | relative viability (IPA-3 + Lapatinib; first compound 2 µM) | relative viability (IPA-3 + Lapatinib; first compound 6.325 µM) | relative viability (IPA-3 + Lapatinib; first compound 20 µM) | relative viability (IPA-3 + Luminespib; first compound 0.2 µM) | relative viability (IPA-3 + Luminespib; first compound 0.6325 µM) | relative viability (IPA-3 + Luminespib; first compound 2 µM) | relative viability (IPA-3 + Luminespib; first compound 6.325 µM) | relative viability (IPA-3 + Luminespib; first compound 20 µM) | relative viability (IPA-3 + AZD7762; first compound 0.2 µM) | relative viability (IPA-3 + AZD7762; first compound 0.6325 µM) | relative viability (IPA-3 + AZD7762; first compound 2 µM) | relative viability (IPA-3 + AZD7762; first compound 6.325 µM) | relative viability (IPA-3 + AZD7762; first compound 20 µM)
1 | SK-LU-1 | 0.688 | 0.422 | 0.41 | 0.297 | 0.27 | 1.18 | 0.744 | 1.01 | 0.756 | 0.692 | 0.207 | 0.17 | 0.225 | 0.161 | 0.228 | – | – | – | – | –
2 | LOU-NH91 | 0.529 | 0.487 | 0.495 | 0.481 | 0.474 | 0.745 | 0.799 | 0.74 | 0.77 | 0.789 | 0.326 | 0.26 | 0.332 | 0.33 | 0.358 | 0.8 | 0.747 | 0.799 | 0.76 | 0.788
3 | LXF-289 | 0.857 | 0.655 | 0.577 | 0.361 | 0.374 | 0.976 | 0.869 | 0.973 | 0.941 | 0.931 | 0.844 | 0.648 | 0.646 | 0.814 | 0.691 | 1.22 | 1.01 | 1.17 | 1.25 | 1.22
4 | NCI-H1299 | 0.683 | 0.407 | 0.223 | 0.246 | 0.198 | 0.966 | 0.936 | 0.944 | 0.894 | 0.91 | – | – | – | – | – | – | – | – | – | –
5 | HARA | 0.367 | 0.267 | 0.271 | 0.287 | 0.134 | 0.764 | 0.659 | 0.57 | 0.793 | 0.74 | 0.991 | 0.767 | 0.0423 | 0.889 | 1.08 | 0.341 | 0.324 | 0.339 | 1.04 | 0.273
6 | LU99A | 0.324 | 0.269 | 0.233 | 0.21 | 0.187 | 0.934 | 0.95 | 1.05 | 0.922 | 0.943 | 0.295 | 0.179 | 0.292 | 0.206 | 0.214 | 0.403 | 0.318 | 0.28 | 0.365 | 0.309
7 | 201T | 0.717 | 0.7 | 0.685 | 0.564 | 0.552 | 1.06 | 1.05 | 1.02 | 1.04 | 1.07 | 1.07 | 1.02 | 1.08 | 1.05 | 1.14 | 0.641 | 0.584 | 0.724 | 0.699 | 0.828
8 | HCC-827 | 0.99 | 1.04 | 1.05 | – | 0.571 | 0.216 | 0.191 | 0.161 | 0.165 | 0.189 | 0.881 | 0.588 | 0.627 | 0.67 | 0.745 | 0.256 | 0.281 | 0.253 | 0.355 | 0.286
9 | NCI-H1666 | 0.583 | 0.453 | 0.329 | 0.426 | 0.249 | 0.77 | 0.673 | 0.674 | 0.786 | 0.66 | 1.06 | 0.972 | 1.04 | 1.16 | 1.34 | 0.866 | 0.815 | 0.788 | 0.962 | 0.905
10 | NCI-H1915 | 0.965 | 0.914 | 0.705 | 0.37 | 0.247 | 1.06 | 0.968 | 0.934 | 0.941 | 1.02 | 0.968 | 0.534 | 0.775 | 0.713 | 0.926 | 0.77 | 0.713 | 0.693 | 0.68 | 0.694
11 | NCI-H2009 | 0.884 | 0.539 | 0.444 | 0.438 | 0.288 | 1.2 | 0.899 | 0.832 | 0.853 | 0.577 | 1.06 | 1.04 | 1.07 | 0.941 | 1.06 | – | – | – | – | –
12 | ChaGo-K-1 | 0.786 | 0.833 | 0.8 | 0.765 | 0.56 | – | – | – | – | – | 0.734 | 0.539 | 0.58 | 0.632 | 0.58 | 0.986 | 0.908 | 0.859 | 0.952 | 0.946
13 | COR-L 105 | 0.487 | 0.316 | 0.383 | 0.292 | 0.307 | 0.384 | 0.374 | 0.359 | 0.325 | 0.304 | 0.866 | 0.858 | 0.771 | 0.826 | 0.97 | – | – | – | – | –
14 | NCI-H2170 | 0.34 | 0.283 | 0.287 | 0.214 | 0.239 | 0.269 | 0.259 | 0.274 | 0.274 | 0.267 | 0.691 | 0.574 | 0.772 | 0.748 | 0.683 | 1.1 | 0.826 | 0.78 | 0.795 | 0.919
15 | A549 | 0.476 | 0.498 | 0.391 | 0.235 | 0.0846 | 1.07 | 0.897 | 1.01 | 1 | 0.981 | – | – | – | – | – | – | – | – | – | –
16 | SW 1573 | 0.597 | 0.445 | 0.542 | 0.399 | 0.221 | 1.17 | 1.09 | 1.03 | 1.06 | 1.06 | 0.139 | 0.215 | 0.459 | 0.158 | 0.0643 | – | – | – | – | –
17 | NCI-H1975 | 0.287 | 0.213 | 0.162 | 0.155 | 0.103 | 1.18 | 0.888 | 0.964 | 0.889 | 0.927 | 0.236 | 0.189 | 0.213 | 0.19 | 0.365 | 0.825 | 0.731 | 0.778 | 0.868 | 0.775
18 | Calu-6 | 0.87 | 0.594 | 0.462 | 0.306 | 0.209 | 1.15 | 0.958 | 1.05 | 1.01 | 1.05 | – | – | – | – | – | – | – | – | – | –
19 | SW 900 | – | – | – | – | – | – | – | – | – | – | 0.211 | 0.184 | 0.165 | 0.181 | 0.212 | 0.823 | 0.64 | 0.631 | 0.605 | 0.786
